The term melting point denotes the temperature of the solid-liquid transition.

For 89 compounds, melting point results are on record in a melting point compilation (Tetko et al.; mined from patent text by program, amines drawn as free bases though some values may be those of a salt).

Turning to `CC(C)Cc1ccc(C(C)C(N)=O)cc1` (centres undefined), the melting point was 84 to 86 °C.

For the compound `CN1CCCC(OC(=O)Nc2ccc(C(F)(F)F)cc2)C1` (centres undefined), the melting point fell in the range of 119 to 120 °C.

Turning to `CCCCCCCCCCCCCC(=O)N(CCCCCCCC)CCC(=O)O`, the melting point worked out at 47 °C.

`C=CCNc1c(NC(CC)CC)cc(C)nc1Oc1c(C)cc(C)cc1C`: the melting point was in the range of 86 to 88 °C.

The compound `N#CC(O)C(Cc1ccccc1)N1C(=O)c2ccccc2C1=O` (centres undefined) returned a melting point of 128 to 132 °C.

Take `OCC1OC(OCc2ccccc2)C(OCc2ccccc2)C1O` (centres undefined): the melting point lay in the range of 73 to 74 °C.

For the compound `O=C(O)c1cc(=O)c2c(OCC(O)COc3ccc(Br)cc3)cccc2o1` (centres undefined), the melting point lay within 192 to 194 °C.

For `N#CC1(c2ccc(OC(F)F)c(OCC3CC3)c2)CCC(=C2SCCCS2)CC1` (centres undefined), the melting point lay within 84 to 85 °C.

`COC(=O)c1ccc2c(c1)CN(c1c(F)cc3c(=O)c(C(=O)O)cn(-c4ccc(F)cc4)c3c1F)C2` showed a melting point of 236 to 240 °C.

In turn, `CCCCCCCCCCCCCCOC(=O)CCCCc1cc(O)c(O)c([N+](=O)[O-])c1` had a melting point of 46 to 47 °C.

Compound `COc1cc(Nc2ncc3c(n2)-c2ccccc2CCC3)cc(OC)c1OC` returned a melting point of 201 to 202 °C.

With `CC(=O)NCC(=O)NS(=O)(=O)c1ccc(-c2c(-c3ccccc3)noc2C)cc1`, the melting point fell in the range of 218 to 219 °C.

Compound `Oc1ccc(-c2cccc(F)c2F)cc1` showed a melting point of 132 to 134 °C.

Take `COc1ccc(CCCOS(C)(=O)=O)cc1OCc1coc(/C=C/c2ccccc2)n1`: the melting point was in the range of 112 to 113 °C.

As for `O=c1[nH]c2ccc(S(=O)CCN3CCC(Cc4ccccc4)CC3)cc2o1` (centres undefined), the melting point fell in the range of 176 to 178 °C.

`N#CC(c1ccccc1)(c1ccccc1)[C@H]1CCCN(CCc2ccc3c(c2)CCC3)C1`: the melting point lay in the range of 88 to 91 °C.

Regarding `CC1(C)CC(C(O)CNc2nc(NCC(O)C3CC(C)(C)NC(C)(C)C3)nc(NCC(O)C3CC(C)(C)NC(C)(C)C3)n2)CC(C)(C)N1` (centres undefined), the melting point lay in the range of 176 to 178 °C.

The compound `CCCCn1ncc2cc(/C=C/c3ccc(O)cc3)ccc2c1=O` displayed a melting point of 225 to 230 °C.

In turn, `O=C(CN1CCc2c([nH]c3ccccc23)C1c1ccccc1)OCc1ccccc1` (centres undefined) had a melting point of 131 to 132 °C.

Turning to `CC(=O)NC(CC=Cc1ccccc1)(COC(C)=O)COC(C)=O`, the melting point was 88 to 90 °C.

Take `Cc1ccc(-c2ccc3nnn(Cc4ccc5ncccc5c4)c3n2)s1`: the melting point fell in the range of 154 to 156 °C.

The compound `Cc1c(C(=O)O)cnn1-c1ccc(C(F)(F)F)cc1` came in with a melting point of 181 °C.

The compound `Cc1nsc2nc3ccccc3n12` had a melting point of 192 to 193 °C.

As to `O=S(=O)(Cl)c1ccc2c(S(=O)(=O)Cl)cc(S(=O)(=O)Cl)cc2c1`, the melting point lay in the range of 195 to 197 °C.

As for `OCC(Nc1ccnc2cc(Cl)ccc12)c1ccccc1` (centres undefined), the melting point was in the range of 220 to 221 °C.

On to `Cc1onc(-c2ccc(Cl)cc2)c1CO`, for which the melting point lay in the range of 94 to 95 °C.

Turning to `COc1ccc(-c2c[nH]c(=O)nc2C)cc1`, the melting point is 210 °C.

For the compound `Cc1c(NC(=O)c2ccc(-c3ccccc3)c(F)c2)ccc2cc(CN3CCCCC3)cnc12`, the melting point lay within 138 to 139 °C.

For `Cc1c(O)ccnc1CSc1nc2ccc(F)cc2[nH]1`, the melting point was in the range of 232 to 233 °C.

Regarding `CN1C(=O)N(C[C@@H]2COC(=O)[C@@H]2CC2CCCC2)C(=O)C1(C)C` (racemic), the melting point fell in the range of 71 to 74 °C.

For the compound `COC(=O)c1cccc(S(=O)(=O)Cc2c(O)ccc3c2CCCC3=O)c1`, the melting point lay in the range of 230 to 232 °C.

Consider `COc1cc(C)c(O)c(C(=O)NCCc2ccc(N=C(N)c3cccs3)cc2)c1`, for which the melting point fell in the range of 175 to 176 °C.

Consider `CCCCCCCCCCCCCCCCCCOc1ccc(NC(=O)c2ccc(OC(C)=O)cc2)cc1`, for which the melting point was found to be 154 °C.

`CC1(C)CC(OC(=O)c2ccccc2C(=O)OC2CC(C)(C)N(OC3CCCCC3)C(C)(C)C2)CC(C)(C)N1OC1CCCCC1` gave a melting point of 149 to 151 °C.

Compound `Nc1ccccc1SC[C@H](NC(=O)OCc1ccccc1)C(=O)O` gave a melting point of 161 to 162 °C.

`CCOC(=O)C(=O)c1cn(CCN2CCOCC2)c2ccccc12`: the melting point lay in the range of 99 to 100 °C.

As to `COc1ccc(OC)c(C(=O)c2cc3cc(OC)ccc3o2)c1`, the melting point was in the range of 119 to 121 °C.

In turn, `O=C(NNS(=O)(=O)c1ccccc1)c1ccnc2ccccc12` yielded a melting point of 153 to 156 °C.

For `COC(=O)Nc1nc(-c2ccccc2)c(-c2nc3ccccc3c(=O)n2-c2ccccc2OC)s1`, the melting point lay in the range of 228 to 230 °C.

Compound `CC(=O)n1cc(O)c2cc(Br)ccc21` gave a melting point of 180 to 182 °C.

The compound `CCCc1nc2c(N)nc3ccccc3c2n1CC(OCC)OCC` showed a melting point of 148 to 150 °C.

In turn, `CCCNC(=S)NC1=Nc2ccc(OC(F)(F)F)cc2SC1` registered a melting point of 180 to 182 °C.

`NS(=O)(=O)c1cc2c(cc1Cl)C(O)N(C1CCN(Cc3cccc(C(F)(F)F)c3)CC1)C2=O` (centres undefined) yielded a melting point of 204 to 205 °C.

`O=C(Nc1cccc2c1C(=O)c1c-2n[nH]c1-c1ccc(C(=O)N2CCN(c3ccccn3)CC2)s1)NN1CCOCC1` yielded a melting point of 201 to 202 °C.

In turn, `CN(C)C(=O)N1CCC(Oc2ccc(C(F)(F)F)cc2)(c2ccccc2)CC1` returned a melting point of 158 to 160 °C.

Turning to `Nc1ccc([N+](=O)[O-])cc1CO`, the melting point lay in the range of 141 to 142 °C.

In the case of `CN1C(=O)c2cnc(-c3ccccc3)nc2N(C(=O)CCl)c2ccccc21`, the melting point lay in the range of 189 to 190 °C.

In the case of `COc1ccc(-c2cc(COS(C)(=O)=O)c(=O)n(Cc3ccc(Cl)cc3)n2)cc1F`, the melting point lay in the range of 156 to 157 °C.

Regarding `CCCCCOc1cc(C(=O)O)ccc1OC`, the melting point turned out to be 125 °C.

`CCOC(=O)c1ncc(-c2ccc(Br)cc2)o1` displayed a melting point of 120 to 122 °C.

On to `OC(Cn1cncn1)(c1ccc(Cl)cn1)c1ccc(Cl)cn1`, for which the melting point is 98 to 100 °C.

For the compound `CCn1nc2c(N)nc3cc(OS(=O)(=O)C(F)(F)F)ccc3c2c1CCc1ccccc1`, the melting point is 178 to 179 °C.

The compound `COC(=O)CC1Sc2ccc([N+](=O)[O-])cc2CN(CCc2ccccc2)C1=O` (centres undefined) gave a melting point of 205 to 208 °C.

Consider `CCC1=CC(c2cccc([N+](=O)[O-])c2)C2=C(CCCC2=O)N1` (centres undefined), for which the melting point fell in the range of 182 to 184 °C.

In turn, `CC(C)[C@H](NC(=O)c1ccccc1)C(=O)NCC(=O)N[C@@H](CCCNC(=N)N)C(=O)Nc1ccc2ncccc2c1` gave a melting point of 167 to 169 °C.

The compound `CC1(c2ccc(C#N)cc2)Cc2cc(O)c(Cl)c(Cl)c2C1=O` (centres undefined) had a melting point of 189 to 196 °C.

`CC(C)(C)NC(=O)[C@@H]1CCCN1C(=O)[C@@H](O)[C@H](Cc1ccccc1)NC(=O)[C@H](CC(N)=O)NC(=O)COC1CCN(C(=O)OCc2ccccc2)CC1` yielded a melting point of 98 to 104 °C.

`CCCc1c(OCCCCCC(=O)NCCc2ccncc2)ccc(C(C)=O)c1O`: the melting point lay within 80 to 83 °C.

Turning to `O=C(NCCCc1ccncc1)N(CCC12CC3CC(CC(C3)C1)C2)Cc1ccco1`, the melting point lay in the range of 128 to 130 °C.

With `FC(F)Sc1nnc(-c2cnccn2)s1`, the melting point lay in the range of 113 to 115 °C.

As for `O=[N+]([O-])c1cc(OCc2ccccc2)ccc1CCBr`, the melting point fell in the range of 30 to 34 °C.

Compound `Cc1nc(N)nc(N)c1-c1ccc(F)cc1F` yielded a melting point of 291 to 296 °C.

The compound `NCc1ccc2cc(O)ccc2c1` showed a melting point of 188 to 192 °C.

The compound `Cc1cc(-c2cc(CO)c(=O)n(Cc3ccc(Cl)cc3)n2)ccc1F` returned a melting point of 157 to 158 °C.

Turning to `Cc1nc2cc(NC(=O)NC34CC5CC(CC(C5)C3)C4)ccc2s1`, the melting point lay within 209 to 214 °C.

`O=C(O)c1nn(-c2ccc(Cl)cc2Cl)c2c1CCCC2` showed a melting point of 239 to 240 °C.

Take `CON=C(C)c1ccc(NS(C)(=O)=O)c(Oc2ccc(F)cc2F)c1`: the melting point is 118 to 120 °C.

With `CCOC(=O)c1[nH]c2ccc(Cl)cc2c1N`, the melting point fell in the range of 126 to 127 °C.

For `N#CCc1cnc(N)cn1`, the melting point is 132 to 134 °C.

In turn, `O=C1CCCC2(c3ccccc3)NCCCN12` (centres undefined) returned a melting point of 120 °C.

`Cc1c(-c2ccccc2)oc2c(C(=O)O)cc(Br)cc2c1=O` yielded a melting point of 287 to 289 °C.

With `CC(C)CN(OCc1ccccc1)C(=O)Nc1ccccc1`, the melting point was in the range of 85 to 87 °C.

Turning to `O=S(=O)(N=C(O)c1ccc(OCCn2ccnc2)cc1)c1ccccc1`, the melting point was 250 to 252 °C.

`Cc1cc(Cl)nc(C=Cc2ccccc2)n1`: the melting point is 71 to 73 °C.

`CCCc1c2nc(C(=O)OC)cc(Br)c2cc2c(=O)cc(C(=O)OC)oc12` showed a melting point of 179 to 180 °C.

`COc1cc2c(cc1OC)CCN(CCCN(C)C1CCc3cc(OC)c(OC)cc3C1)C=C2` (centres undefined): the melting point lay in the range of 115 to 116 °C.

The compound `O=C(O)CCc1cc(-c2ccc(Cl)cc2)n(-c2nc3c(Cl)cccc3s2)n1` registered a melting point of 232 to 234 °C.

The compound `FC(F)(F)c1ccccc1-c1ccnc2ncnn12` yielded a melting point of 149 to 151 °C.

`COc1ccc2[nH]c(S(=O)Cc3cc(N)c(Br)cn3)nc2c1` (centres undefined) registered a melting point of 130 to 132 °C.

For the compound `Cc1ccc2nc(C3(c4ccc(S(N)(=O)=O)cc4)C=C(C(F)(F)F)NN3)sc2c1` (centres undefined), the melting point lay in the range of 257 to 258 °C.

Take `COc1ccc(-c2nn(C3CCC3)c3c(C(F)(F)F)cccc23)c(OC)c1`: the melting point lay in the range of 109 to 110 °C.

Take `CCOC(=O)C1=Cc2cc(Cl)ccc2NC1C(F)(F)F` (centres undefined): the melting point fell in the range of 133 to 134 °C.

Compound `CC(=O)NC[C@H]1CN(c2ccc(N=C=S)c(F)c2)C(=O)O1` returned a melting point of 172 to 176 °C.

For `COc1ccc(C(=O)c2cccn2C)cc1`, the melting point lay in the range of 66 to 68 °C.

Compound `CCCCCCCCC#CCC#CCC#CCCCC(=O)NCC(O)CO` (centres undefined) came in with a melting point of 87 °C.

In turn, `Cc1nc(Nc2ccccc2)sc1-c1ccnc(Nc2ccc(N3CCN(Cc4ccccc4)CC3)cc2)n1` came in with a melting point of 227 to 229 °C.

`O=C1CN=C(c2ccccc2F)c2cc(Cl)ccc2N1` showed a melting point of 206 to 207 °C.

`COCC1CN(c2ccc3cc(OCCC#N)ccc3c2)C(=O)O1` (centres undefined): the melting point was in the range of 110 to 112 °C.

Take `CC(C)(Oc1ccc(C2CCOCC2)cc1Cl)C(=O)O`: the melting point was 141 °C.
